Assay results reported in patent publication US20090170834A1, “Fused Pyrimidones and Thiopyrimidones, and Uses Thereof” (PROLEXYS PHARMACEUTICALS, INC., priority 2005, published 2009).

Columns and labels:
[1] = system: engineered tumorigenic cells; assay: Sytox primary screen, inhibition of growth of tumorigenic cells; format: cell-based; settings: Homo sapiens; compound in DMSO, 48 hours exposure, Sytox readout
Protocol: The ability of Compounds 1 and 2, dissolved in DMSO, to inhibit the growth of normal and tumorigenic cells was measured. The compounds were assayed by the Sytox primary screen, a phenotypic assay which monitors alterations in cell survival-proliferation as a result of compound treatment. It was devised as high throughput method to identify compounds which specifically alter the growth potential of cells harboring the causative mutations found in cancer patients while not affecting the growth of normal cells. The assay relies upon an inexpensive, simple and reliable readout of a membrane impermeable fluorescent dye (Sytox, from Molecular Probes) which binds to nucleic acid. In healthy cells, no signal is detected because the cell's membrane is intact and the dye will not enter. However, if a cell's membrane is compromised as a result of apoptosis or necrosis, a fluorescent signal proportional to the number of similarly affected cells will be detected. By utilizing a two-step readout (final read in the presence of detergent to permit labeling of all cells), the assay can identify compounds which produce cytostasis, cytotoxicity and/or mitogenesis. The first read or “dead cell” read, provides an estimate of the toxicity of a given compound by indicating the number of dead or dying cells in the culture at the time of assay. […]

HT-1080 cells = assay: Inhibition of growth of HT-1080 cells (Sytox assay); format: cell-based; settings: Homo sapiens; HT-1080 fibrosarcoma cells, N-ras codon 12 mutation; compound in DMSO, 48 hours exposure
Protocol: The ability of Compounds 1 and 2, dissolved in DMSO, to inhibit the growth of normal and tumorigenic cells was measured. The compounds were assayed by the Sytox primary screen, a phenotypic assay which monitors alterations in cell survival-proliferation as a result of compound treatment. It was devised as high throughput method to identify compounds which specifically alter the growth potential of cells harboring the causative mutations found in cancer patients while not affecting the growth of normal cells. The assay relies upon an inexpensive, simple and reliable readout of a membrane impermeable fluorescent dye (Sytox, from Molecular Probes) which binds to nucleic acid. In healthy cells, no signal is detected because the cell's membrane is intact and the dye will not enter. However, if a cell's membrane is compromised as a result of apoptosis or necrosis, a fluorescent signal proportional to the number of similarly affected cells will be detected. By utilizing a two-step readout (final read in the presence of detergent to permit labeling of all cells), the assay can identify compounds which produce cytostasis, cytotoxicity and/or mitogenesis. The first read or “dead cell” read, provides an estimate of the toxicity of a given compound by indicating the number of dead or dying cells in the culture at the time of assay. The second read or “total cell” read, captures both the cumulative effects of cytoxicity in reducing the size of the cell population as well as any cytostatic or anti-proliferative effects a test compound may exert on the cells in the test population in the absence of toxicity.
Cells were seeded overnight in 96 well plates at densities that without treatment would permit 95% confluence in the wells 72 hours later. The following day, the cells were exposed to test compounds in a dilution series for a period of 48 hours. Following this incubation period, the Sytox reagent was added to the cultures at the manufacturer's recommended concentration and the dead cell fluorescence read was taken. After completion of this measurement, the detergent Saponin was added to each well of the cultures to permeabilize the membranes allowing the Sytox reagent to enter every cell, thereby facilitating measurement of the total number of cells remaining in the culture.
The ability of various compounds of the invention, in DMSO, to inhibit the growth of HT-1080 cells was measured. The HT-1080 cell line used in these experiments was derived from a patient with fibrosarcoma and harbors an activating mutation in the N-ras gene at codon 12. The compound was assayed using the assay described in Example 6. The results of the assay are shown in the table below, where the activity corresponds to the following ranges: A—less than 10 nM, B—10-100 nM, C—100-1000 nM, D—1000-2000 nM, E—greater than 2000 nM.

SMILES	IC50 [1] [nM]	IC50 (HT-1080 cells) [nM]
CCOc1ccccc1-n1c(C(C)N2CCN(C(=O)COc3ccc(Cl)cc3)CC2)nc2c(cnn2-c2ccccc2)c1=O (stereo not drawn) [Compound 2, 6-(1-(4-(2-(4-chlorophenoxy)acetyl)piperazin-1-yl)ethyl)-5-(2-ethoxyphenyl)-1-phenyl-1H-pyrazolo[3,4-d]pyrimidin-4(5H)-one]	~10000	–
CCOc1ccccc1-n1c(CN2CCCN(C)CC2)nc2cnccc2c1=O [Compound 9, 3-(2-ethoxyphenyl)-2-((4-methyl-1,4-diazepan-1-yl)methyl)pyrido[3,4-d]pyrimidin-4(3H)-one]	–	> 2000
CCOc1ccccc1-n1c(CN2CCCN(CC)CC2)nc2sccc2c1=O [Compound 7, 3-(2-ethoxyphenyl)-2-((4-ethyl-1,4-diazepan-1-yl)methyl)thieno[2,3-d]pyrimidin-4(3H)-one]	–	10 to 100
CCOc1ccccc1-n1c(CN2CCNCC2)nc2cnccc2c1=O [Compound 8, 3-(2-ethoxyphenyl)-2-(piperazin-1-ylmethyl)pyrido[3,4-d]pyrimidin-4(3H)-one]	–	> 2000
CCOc1ccccc1-n1c(CN2CCCN(C)CC2)nc2sccc2c1=O [Compound 6, 3-(2-ethoxyphenyl)-2-((4-methyl-1,4-diazepan-1-yl)methyl)thieno[2,3-d]pyrimidin-4(3H)-one]	–	< 10
CCOc1ccccc1-n1c(C(C)N2CCN(C(=O)COc3ccc(Cl)cc3)CC2)nc2ccncc2c1=O (stereo not drawn) [Compound 1, 2-(1-(4-(2-(4-chlorophenoxy)acetyl)piperazin-1-yl)ethyl)-3-(2-ethoxyphenyl)pyrido[4,5-d]pyrimidin-4(3H)-one]	~10000	–
CCOc1ccccc1-n1c(CN2CCNCC2)nc2c(cnn2-c2ccccc2)c1=O [Compound 3, 5-(2-ethoxyphenyl)-1-phenyl-6-(piperazin-1-ylmethyl)-1H-pyrazolo[3,4-d]pyrimidin-4(5H)-one]	–	> 2000
CCOc1ccccc1-n1c(CN2CCNCC2)nc2sccc2c1=O [Compound 4, 3-(2-ethoxyphenyl)-2-(piperazin-1-ylmethyl)thieno[2,3-d]pyrimidin-4(3H)-one]	–	100 to 1000
CCOc1ccccc1-n1c(CN2CCCNCC2)nc2sccc2c1=O [Compound 5, 2-((1,4-diazepan-1-yl)methyl)-3-(2-ethoxyphenyl)thieno[2,3-d]pyrimidin-4(3H)-one]	–	< 10
